“And” between values parts separate entries of the source, which are not always exact repeats. Equal entries are not always repeated. “Also recorded” adds a separate entry of the source. No end group written: not given here.
Legend:
[1] = biological target: T1, prothrombinase (Homo sapiens, UniProt P00734); experiment: Assay measuring thrombin formation (prothrombinase inhibition by peptides, DAPA fluorescence); format: biochemical; conditions: for Ki: calculated from IC50=Ki(1+S0/Km), Km 0.4 μM, S0 350 nM prothrombin, read-out: Ki of prothrombinase inhibition; for IC50: factor Va 4 nM, factor Xa 10 nM, prothrombin 350 nM, PCPS 10 μM, peptide preincubated with factor Va; for type of inhibition of prothrombinase with respect to prothrombin: kinetic analyses, increasing prothrombin and peptide; for effect on prothrombinase / factor Va cofactor activity at fixed concentration: peptide 100 μM
T1 construct: purchased Haematologic Technologies Inc. (Essex Junction, Vt.)
Procedure: Assay measuring thrombin formation. The formation of thrombin was analyzed using the fluorescent thrombin inhibitor DAPA as described using a Perkin Elmer LS-50B Luminescence Spectrometer (Perkin-Elmer LLC, Norwalk Conn.) with λex=280 nm, λem=550 nm and a 500 nm long pass filter in the emission beam (Schott KV-500). […] In all cases peptides were preincubated with factor tor Va prior to the assay as described in the legend to the figures. The final concentration of factor tor Va in the mixture was 4 nM with factor Xa at 10 nM, prothrombin at 350 nM, DAPA at 700 nM, in the presence of PCPS vesicles (10 μM). The initial rate of thrombin formation (nM IIa·min^−1) was calculated as described during the initial 5-10 sec of the reaction. To verify if the peptides have any effect on the active-site of thrombin, control experiments were performed as follows: a given peptide (at 100 μM) was incubated in the assay buffer containing DAPA (700 nM); the base line was monitored for 30 sec; thrombin (350 nM) was then added to the mixture and the fluorescent intensity resulting from the complexation of DAPA with the active site of thrombin was monitored for 60 sec. The slope of the reaction measuring thrombin formation in the presence of a given peptide during the first 5 sec was calculated and compared to the slope of a reaction obtained in the absence of peptide. It is noteworthy that under the conditions employed the thrombin-DAPA interaction occurred fast and the calculated slope of the reaction was sensitive to all parameters used. […] All experiments were performed in triplicates or as indicated. The concentration of each peptide given in the figures and figure legends is their final concentration in the assay. […] In some cases the data were also analyzed and plotted using DeltaGraph (DeltaPoint, Monterey, Calif.).
Specifically, peptides were incubated with factor tor Va as described herein at a fixed concentration (100 μM). The percent of factor tor Va cofactor activity was calculated by comparing the activity of prothrombinase in the presence of a given peptide to the activity of prothrombinase determined in a control reaction in the absence of peptide and in the presence of factor Xa. […] The control peptide represents a pentadecapeptide from the middle portion of factor tor Va heavy chain (P15H) (SEQ ID NO. 22). […] All other peptides from region 680-709 had no significant effect on prothrombinase activity.
HC3 represents amino acid sequence 690-699 of factor tor Va heavy chain; HC4 contains the sequence 695-704 of human factor tor Va heavy chain; P15H represents amino acid sequence 337-351 from the middle portion of human factor tor Va heavy chain. […] The concentration of each peptide given on the x axis represents its final concentration in the prothrombinase mixture. […] Thus, both peptides show similar inhibitory potential.

[2] = biological target: T2, [OG488]-EGR-hXa-human factor tor Va (Homo sapiens, UniProt P00742); experiment: Fluorescence anisotropy of preformed membrane-bound [OG488]-EGR-hXa-factor Va complex; format: binding; conditions: up to 300 μM peptide
T2 construct: purchased Haematologic Technologies Inc. (Essex Junction, Vt.)
T2 sequence (P00742 41-179 limits assumed): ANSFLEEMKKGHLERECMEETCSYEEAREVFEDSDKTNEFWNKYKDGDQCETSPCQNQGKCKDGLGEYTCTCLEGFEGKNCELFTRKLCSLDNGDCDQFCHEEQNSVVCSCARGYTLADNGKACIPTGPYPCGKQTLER
T2 sequence (P00742 235-488 limits assumed): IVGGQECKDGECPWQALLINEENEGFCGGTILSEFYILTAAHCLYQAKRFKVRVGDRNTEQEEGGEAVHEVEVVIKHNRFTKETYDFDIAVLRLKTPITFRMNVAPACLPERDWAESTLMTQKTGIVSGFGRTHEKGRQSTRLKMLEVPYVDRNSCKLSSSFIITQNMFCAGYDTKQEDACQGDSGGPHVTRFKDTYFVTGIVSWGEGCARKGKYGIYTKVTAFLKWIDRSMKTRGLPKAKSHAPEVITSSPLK
Procedure: Fluorescence Anisotropy measurements. Fluorescence anisotropy of [OG488]-EGR-hXa was measured using a Perkin Elmer LS-50B Luminescence Spectrometer in L-format as recently described. Anisotropy measurements were performed in a quartz cuvette under constant stirring (low) with λex=490 nm, λem=520 nm with a long pass filter (Schott KV-520) in the emission beam. […] The concentration of peptide given in each graph is the final concentration of the peptide in the assay mixture. […] In some cases the data were also plotted using DeltaGraph (DeltaPoint, Monterey, Calif.).
HC3 and HC4 were also tested for their ability to interfere with the fluorescence anisotropy of a preformed complex composed of membrane-bound [OG488]-EGR-hXa-human factor tor Va as described. […] The peptides must thus impair another function of the cofactor within prothrombinase.

[3] = biological target: T3, active-site-immobilized thrombin (Homo sapiens, UniProt P00734); experiment: Direct binding of the peptides to thrombin-agarose (chromatography); conditions: 400 μg peptide, 2.5 ml column, elution 2M NaCl
T3 construct: Factor Xa cleaves prothrombin to form thrombin; purchased Haematologic Technologies Inc. (Essex Junction, Vt.)
Procedure: Direct binding of the peptides to thrombin. Thrombin was immobilized onto agarose through the active site as described. Peptide solutions of HC1-HC5 (SEQ ID NO. 2-6, respectively), D13R (SEQ ID NO. 21), DYDYQ (SEQ ID NO. 11), and P15H (SEQ ID NO. 22) were dissolved in water to a given concentration and then diluted in 20 mM Hepes, 0.1 M NaCl, pH 7.4 in a manner that 400 μg was contained in each starting solution. In control experiments it was determined that the maximum amount of peptide that could be retained by the thrombin-agarose column was 400 μg. Since some of the peptides contain aromatic amino acid residues, their concentration was also measured by optical density.
Mass spectrometry instruments and conditions. The identity of all peptides found in the flow-through or the elution of the thrombin-agarose column was verified by mass spectrometry. Since the peptides were in a buffer solution, we used Liquid Chromatography/Mass Spectrometry (LC/MS) for their identification. In this procedure peptides are first separated from the salt content of the buffer using an HPLC system (HP 1100, HPLC gradient system, Agilent Technologies, Palo Alto Calif.) with a C18 column (1 mm×15 cm, GraceVydac, Hesperia Calif.) with buffers A (0.3% acetic acid in water) and B (0.3% acetic acid in acetonitrile). The elution of the column was monitored with a Micromass Quatro II ESI-Triple Quadrupole Mass Spectrometer (Waters, Milford Mass.). The data were collected using a Compaq Professional Workstation AP200 (Hewlett-Packard, Palo Alto Calif.) and analyzed by the software MassLynx v3.3 (Waters, Milford Mass.).
Direct interaction of hirudin-like peptides from factor tor Va heavy chain With thrombin-agarose. To ascertain that the peptides of interest are inhibitory of prothrombinase activity and contain a binding site for thrombin, the interaction of all peptides with active-site-immobilized thrombin was studied in chromatographic experiments and is shown in FIG. 5. In FIG. 5, small scale chromatography of hirudin-like peptides was performed on a 2.5 ml thrombin-agarose. Each run represents 400 μg of peptide. This amount of peptide was determined to saturate the specific sites of thrombin of the column used (2.5 ml). Elution was performed with 2M NaCl and was started at the point indicated by the arrow (fraction #30). The presence of the peptides in the corresponding fractions was monitored by absorbance at 280 nm (shown on the y axis) and by LC/MS (inset). […] Specifically, these peptides were treated similarly to all other peptides and similar fractions were collected. Aliquots from fractions #7 and #35 from each separate experiment were submitted to LC/MS analysis as described herein (depicted by the hatched arrows at the bottom of the chromatogram). The results from tube #7 from three chromatograms are depicted. The data are presented as % intensity of the signal as a function of the mass of the peptide divided by the charge (m/z). FIG. 5A, HC1 (Mr calculated 1268); FIG. 5B, HC2 (Mr calculated 1132); FIG. 5C, HC5 (Mr calculated 1053). The spectrum of HC1 has two major peaks: at 635.5 and at 424, and one minor peak at 1270 (1268+1). The peak at 635.5 represents the peptide (mass/charge) with two positive charges ([…]) i.e. [(1268+2=1270)]/2=635 whereas, the peak at 424 represents HC1 with three positive charges ([…]) i.e. [(1268+3=1271)]/3=424. […] HC5 spectrum has two major peaks: one at 528 and one at 352. The peak at 528 represents the peptide with two positive charges ([…]) i.e. [(1053+2=1055)]/2=527.5 while, the other peak represents HC5 with three positive charges ([M+31-]^2+) i.e. [(1053+3=1056)]/3=352. The minor peak at 1054 represents the peptide with one charge. It is noteworthy, that in gas phase the number of protons attached to each peptide depends on the number (quantity) of basic residues contained in each peptide. […] Thus, HC1 and HC5 are more likely to bind two or three protons than HC2. […]

[4] = test system: factor V deficient plasma; experiment: Clotting activity of recombinant factor V molecules
Procedure: Determination of factor V/tor Va clotting activity of the recombinant molecules. Cofactor activity of wild type and mutant molecules was measured in a clotting assay using factor V deficient plasma prior and after activation by thrombin (15 min, 37° C.) and RVV-V activator (2 hr, 37° C.) as described. The values were standardized to the percentage of control. A linear semi-log graph was constructed using known concentrations of purified factor V (U/ml as a function of clotting time). The assay endpoint was determined by visualization of the fibrin clot. The activity of the factor VNa solution (U/ml) was determined by extrapolation from the graph. The concentration of the recombinant molecules was determined by a recently described ELISA. Finally, the numbers were combined to obtain the specific activity of the recombinant factor V solutions (U/mg).

[5] = test system: prothrombinase; experiment: Prothrombinase assay using purified reagents and chromogenic substrate (cofactor activity of recombinant factor Va species); conditions: activated with RVV-V activator or factor Xa

DYDYQNRLAA [HC4]
Vmax of prothrombinase in presence of increasing peptide ([1]; HC4 0.5-2 μM, increasing prothrombin): ~525±30 nM IIa/min | Ki [1]: 5.3 µM and ~5.3 µM | IC50 [1]: 10 µM and ~10 µM | type of inhibition of prothrombinase with respect to prothrombin [1]: competitive type of inhibition; also recorded: competitive inhibitors | effect on prothrombinase / factor Va cofactor activity at fixed concentration [1]: inhibited prothrombinase; also recorded: complete inhibition | interference with binding of factor Va to [OG488]-EGR-hXa (anisotropy) [2]: No significant decrease; also recorded: unable to interfere with the binding of factor tor Va | interaction with immobilized thrombin (thrombin-agarose) [3]: eluted from the column with high-salt buffer; also recorded: interact with immobilized thrombin

EESDADYDYQ [HC3]
Ki [1]: 6.3 µM and ~6.3 µM | IC50 [1]: 12 µM and ~12 µM | type of inhibition of prothrombinase with respect to prothrombin [1]: competitive inhibitors | effect on prothrombinase / factor Va cofactor activity at fixed concentration [1]: inhibited prothrombinase; also recorded: complete inhibition | interference with binding of factor Va to [OG488]-EGR-hXa (anisotropy) [2]: No significant decrease; also recorded: unable to interfere with the binding of factor tor Va | interaction with immobilized thrombin (thrombin-agarose) [3]: eluted from the column with high-salt buffer; also recorded: interact with immobilized thrombin

Factor VaRVV^2K2F: quadruple mutant activated with RVV-V activator
ability to promote clotting [4]: unable to promote clotting | Activity ([4]; factor V species at 2.5 nM): 0.002 U/ml | Specific activity ([4]; factor V species at 2.5 nM): 2.4 U/mg | clotting time ([4]; factor V species at 2.5 nM): 73.1 ± 4 s | times less cofactor activity than wild type molecule activated under similar conditions [5]: ~22 times

Source: patent publication US20100267638A1, “EXOSITE-DIRECTED THROMBIN INHIBITORS” (CLEVELAND STATE UNIVERSITY, priority 2003, published 2010)
